Counter-ions that a name gives are not always drawn.
Tested on: mice with 2.5 mg/kg loperamide-induced constipation
Assay: Small intestinal propulsive rate of a charcoal solution in mice with 2.5 mg/kg loperamide-induced constipation, with positive controls (Example 2)
Type: in vivo, mouse
Conditions: for Effect on the small intestinal propulsive rate (%) vs model group, in words: positive drugs at 1× dose, loperamide-induced constipation mouse model; for Propulsive distance of the charcoal solution / Small intestinal propulsive rate: positive drugs intragastric: itopride 30.75, naloxone 5.0, domperidone 6.16, mosapride citrate 3.075 mg/kg, loperamide 2.5 mg/kg s.c., 20 min after charcoal
Source text: 1.2 Experimental Animals Species: mouse Strains: C57BL/6 Gender and quantity: Female, 65 Animal week-age: 8-9 weeks Weight range: 19.0-25.0 g Animal sources: Shanghai Lingchang Biotechnology Co. LTD Animal certificate number: 2013001804393 2. Experimental Design and Methods 2.1 Test Grouping:
Experimental animals were randomly divided into 8 groups (8 animals per group) by the random number table method.
2.2 Reagent Preparation 1) 0.5% CMC—Na solution: 2.0 g of CMC—Na powder was weighed and 300 ml ultra-pure water was slowly added thereto; the mixture was subjected to magnetic stirring until it was completely dissolved to reach a constant volume of 400 ml, thereby preparing a clear solution of 0.5%, which was stored at 4° C. for later use. 2) 1% Tween-80 in saline: 40 ml saline was accurately measured using a measuring cylinder and added into a 50 ml centrifuge tube; 400 μl Tween-80 was measured using a pipette and added into the centrifuge tube; and the mixture was subjected to vortex oscillation to be homogeneous and was then placed at room temperature for later use. 3) 5% charcoal solution: 100 g of Arabic gum was accurately weighed and 800 ml water was added thereto; and the solution was boiled until it was transparent. 50 g of activated carbon powder was weighed and added into the above solution and the mixture was boiled for three times. After the solution was cool, water was added to reach a constant volume of 1000 ml. 4) Group for the composition comprising B vitamins (9 components) and C vitamins (5×): one tablet of the composition comprising B vitamins (9 components) and C vitamins was taken; after its grinding, 19.5 ml of 0.5% CMC—Na was added; and the mixture was subjected to oscillation to become homogeneous, thereby forming a stable suspension. It was used immediately after its preparation. 5) Group for the composition comprising B vitamins (9 components) and C vitamins (1×): 2 ml of the suspension of the composition comprising B vitamins (9 components) and C vitamins (5×) was taken and 8 ml of 0.5% CMC—Na was added; and the mixture was subjected to oscillation to become homogeneous, thereby forming a stable suspension. It was used immediately after its preparation. 6) Domperidone: 32.52 ml of 0.5% CMC—Na was added after grinding of one domperidone tablet; and the mixture was subjected to oscillation to become homogeneous, thereby forming a stable suspension. It was used immediately after its preparation. 7) Mosapride citrate: 32.52 ml of 0.5% CMC—Na was added after grinding of one mosapride citrate tablet; and the mixture was subjected to oscillation to become homogeneous, thereby forming a stable suspension. It was used immediately after its preparation. […] It was used immediately after its preparation. […] It was used immediately after its preparation. 10) Loperamide: 5.0 mg of loperamide was accurately weighed and 20 ml of a saline solution with 1.0% Tween 80 was added thereto; after being subjected to oscillation to become homogeneous, the mixture was subjected to ultrasound for at least 5 minutes. This reagent was used immediately after it was prepared. 2.3 Test Methods
After 30 minutes of administration, the control group was injected subcutaneously with the saline solution containing 1.0% Tween 80 while the other groups were injected subcutaneously with a loperamide solution in an injection volume of 10 ml/kg. After a subcutaneous injection for 30 minutes, an intragastric administration of the charcoal solution was performed at an administration volume of 10 ml/kg^[1,2,3].
2.4 Observation Index Small intestinal propulsive rate of the charcoal solution (%)=(the propulsive distance of the charcoal solution/total length of the small intestine)×100
Twenty minutes after an intragastric administration of the charcoal solution, the animal was sacrificed by cervical dislocation and its abdominal cavity was immediately opened to separate the mesentery.

Compound	Effect on the small intestinal propulsive rate (%) vs model group, in words	Propulsive distance of the charcoal solution [cm]	Small intestinal propulsive rate [%]	Small intestinal propulsive rate (listed as mosapride citrate) [%]	Small intestinal propulsive rate (listed as domperidone) [%]	Small intestinal propulsive rate (hydrochloride) [%]	Small intestinal propulsive rate (listed as itopride hydrochloride, hydrochloride) [%]
CCOc1cc(N)c(Cl)cc1C(=O)NCC1CN(Cc2ccc(F)cc2)CCO1 (stereo not drawn) [Mosapride Citrate, Mosapride citrate]	do not have the improvement effect	11.7 ± 2.1	60.7 ± 12.1	20.1±5.7			
C=CCN1CC[C@]23c4c5ccc(O)c4O[C@H]2C(=O)CC[C@@]3(O)[C@H]1C5 [Naloxone]	also has the improvement effect	3.9 ± 0.8	19.5 ± 3.8				
O=c1[nH]c2ccccc2n1CCCN1CCC(n2c(=O)[nH]c3cc(Cl)ccc32)CC1 [Domperidone]	do not have the improvement effect	4.0 ± 1.1	20.1 ± 5.7		19.5±3.8		
COc1ccc(C(=O)NCc2ccc(OCCN(C)C)cc2)cc1OC [Itopride hydrochloride]	do not have the improvement effect	5.0 ± 1.2				26.4 ± 7.0	26.4±7.0

Source: patent US10881639B2, “Use of composition of multivitamin in preparing drug for stimulating gastrointestinal system motility” (Zensun (Shanghai) Science & Technology, Co., Ltd., priority 2015, dated 2021)
